Laboratory results published in patent US9669050B2, “Composition for prevention or treatment of hyperlipidemia, fatty liver or obesity” (BENEBIOSIS CO., LTD., priority 2008, dated 2017).
Entries after “also recorded” stand apart in the source; their conditions may differ.

Columns and labels:
[1] = tested on: high-fat diet C56BL/6 male mice; assay: Body weight change and food intake of high-fat diet mice; format: in vivo, mouse; conditions: for Weight increase / Final weight: peritoneal injection every day
Procedure: 4 week-old C56BL/6 male mice were purchased from Dooyeul Biotech (Korea). Water was allowed freely and commercially available pellet feed (Dooyeul Biotech, Korea) was given for a week. The mice were grouped into six groups (six per each group) as follows: ND, normal diet group (normal group); HD, high-fat (60% fat) diet [purchased from Research Diets (New Brunswick, USA)] group (control group); and HD+SL (0.1 mg/kg), HD+SL (0.5 mg/kg), HD+SL (1.0 mg/kg) and HD+SL (5.0 mg/kg), high-fat diet groups treated with sialyllactose (SL, Sigma). Sialyllactose or PBS was administered every day by peritoneal injection. The mice were kept in cages for 50 days and sacrificed after fasting for 12 hours. Food intake and body weight change were measured every 7 days. 3′-Sialyllactose (3′-N-acetylneuraminyl-D-lactose, 3′-sialyl-D-lactose or α-NeuNAc-(2→3)-β-D-Gal-(1→4)-D-Glc) and 6′-sialyllactose (6′-N-acetylneuraminyl-lactose, 6′-sialyl-D-lactose or α-NeuNAc-(2→6)-β-D-Gal-(1→4)-D-Glc) were purchased from Sigma-Aldrich.

[2] = tested on: high-fat diet C56BL/6 male mice; assay: Serum lipid and leptin levels in high-fat diet mice; format: in vivo, mouse; conditions: for Leptin / HDL-cholesterol / HDL/TC / LDL/TC / Total cholesterol (TC) / Triglyceride / LDL-cholesterol: peritoneal injection every day, 50 days; for Leptin: ELISA; for HDL-cholesterol / HDL/TC / LDL/TC / Total cholesterol (TC) / Triglyceride / LDL-cholesterol: serum; for LDL-cholesterol: calculated by Equation 1
Procedure: Blood was taken from the liver of the C56BL/6 male mice. The blood was coagulated, centrifuged for 15 minutes at 13,000 rpm, and kept at −20° C. until serum analysis. High-density lipoprotein (HDL)-cholesterol level was measured using an HDL kit (YD Diagnostics, Korea). Triglyceride (TG) was analyzed using a TG kit (YD Diagnostics) based on enzymologic method. Total cholesterol was analyzed using a cholesterol E kit (YD Diagnostics). Low-density lipoprotein (LDL)-cholesterol level was calculated from triglyceride level, total cholesterol level and HDL-cholesterol level according to Equation 1: LDL-cholesterol=total cholesterol−{[…]} Equation 1
Leptin level was measured using a mouse leptin ELISA kit (Millipore) and a rat leptin ELISA kit (Millipore).

With `CC(=O)N[C@H]1[C@H]([C@H](O)[C@H](O)CO)O[C@@](OC[C@H]2O[C@@H](O[C@H]3[C@H](O)[C@@H](O)[C@H](O)O[C@@H]3CO)[C@H](O)[C@@H](O)[C@H]2O)(C(=O)O)C[C@@H]1O` [6′-SL, α-NeuNAc-(2→6)-β-D-Gal-(1→4)-D-Glc] the Weight increase ([1]; HD + SL 0.1 mg/kg) was 7.82 ± 1.44(*) g/50 day, the Final weight ([1]; HD + SL 0.1 mg/kg, 50 days) was 26.82 ± 0.92 g and the Weight increase ([1]; HD + SL 0.5 mg/kg) was 7.68 ± 2.82(*) g/50 day. For the same molecule, the Final weight ([1]; HD + SL 0.5 mg/kg, 50 days) was 25.74 ± 1.93 g, the Weight increase ([1]; HD + SL 1.0 mg/kg) was 7.99 ± 1.15(*) g/50 day and the Final weight ([1]; HD + SL 1.0 mg/kg, 50 days) was 25.62 ± 1.33 g. For the same molecule, the Weight increase ([1]; HD + SL 5.0 mg/kg) was 6.88 ± 1.80(*) g/50 day, the Final weight ([1]; HD + SL 5.0 mg/kg, 50 days) was 25.92 ± 0.95 g and the “body weight decrease compared to normal diet mice” value ([1]; high-fat diet + SL 5 mg/kg peritoneally injected, 50 days) was 4.7%. The “Comparison of body weight increase, SL vs. ND” value ([1]; high-fat diet + SL 5 mg/kg peritoneally injected, 50 days, compared to normal diet mice) was −4.7%, the “effect on body weight increase (in words)” value ([1]; high-fat diet mice, peritoneal injection, 50 days) was “significant decrease in body weight increase; also recorded: more effective in body weight loss than 3′-SL; also recorded: less body weight increase than the normal diet mice” and the Leptin ([2]; HD + SL 0.1 mg/kg) was 11.50 ± 3.72 ng/mL. For the same molecule, the HDL-cholesterol ([2]; HD + SL 0.1 mg/kg) was 70.71 ± 14.15 mg/dL, the HDL/TC ([2]; HD + SL 0.1 mg/kg) was 0.55 ± 0.08(*) and the LDL/TC ([2]; HD + SL 0.1 mg/kg) was 0.33 ± 0.07(*). The “Total cholesterol (TC)” value ([2]; HD + SL 0.1 mg/kg) was 126.68 ± 10.7 mg/dL, the Triglyceride ([2]; HD + SL 0.1 mg/kg) was 74.48 ± 3.77 mg/dL and the LDL-cholesterol ([2]; HD + SL 0.1 mg/kg) was 41.07 ± 6.34 mg/dL. For the same molecule, the Leptin ([2]; HD + SL 0.5 mg/kg) was 6.71 ± 0.93 ng/mL, the HDL-cholesterol ([2]; HD + SL 0.5 mg/kg) was 76.33 ± 10.53 mg/dL and the HDL/TC ([2]; HD + SL 0.5 mg/kg) was 0.58 ± 0.05(*). The LDL/TC ([2]; HD + SL 0.5 mg/kg) was 0.31 ± 0.05(*), the “Total cholesterol (TC)” value ([2]; HD + SL 0.5 mg/kg) was 130.54 ± 8.10 mg/dL and the Triglyceride ([2]; HD + SL 0.5 mg/kg) was 71.05 ± 5.88 mg/dL. For the same molecule, the LDL-cholesterol ([2]; HD + SL 0.5 mg/kg) was 40.00 ± 4.25 mg/dL, the Leptin ([2]; HD + SL 1.0 mg/kg) was 5.15 ± 1.61 ng/mL and the HDL-cholesterol ([2]; HD + SL 1.0 mg/kg) was 57.44 ± 0.87 mg/dL. For the same molecule, the HDL/TC ([2]; HD + SL 1.0 mg/kg) was 0.53 ± 0.03(*), the LDL/TC ([2]; HD + SL 1.0 mg/kg) was 0.36 ± 0.02(*) and the “Total cholesterol (TC)” value ([2]; HD + SL 1.0 mg/kg) was 109.14 ± 9.86 mg/dL. It also gave a Triglyceride ([2]; HD + SL 1.0 mg/kg) of 60.69 ± 7.69 mg/dL, an LDL-cholesterol ([2]; HD + SL 1.0 mg/kg) of 39.56 ± 8.53 mg/dL and a Leptin ([2]; HD + SL 5.0 mg/kg) of 6.47 ± 1.64 ng/mL. The HDL-cholesterol ([2]; HD + SL 5.0 mg/kg) was 62.73 ± 8.58 mg/dL, the HDL/TC ([2]; HD + SL 5.0 mg/kg) was 0.54 ± 0.05(*) and the LDL/TC ([2]; HD + SL 5.0 mg/kg) was 0.35 ± 0.10(*). The “Total cholesterol (TC)” value ([2]; HD + SL 5.0 mg/kg) was 115.36 ± 14.9 mg/dL, the Triglyceride ([2]; HD + SL 5.0 mg/kg) was 61.34 ± 3.84 mg/dL and the LDL-cholesterol ([2]; HD + SL 5.0 mg/kg) was 40.36 ± 2.69 mg/dL. For the same molecule, the “effect on LDL-cholesterol, total cholesterol, triglyceride and leptin levels (in words)” value ([2]; high-fat diet mice, compared to the high-fat diet group) was “much better effect of reducing LDL-cholesterol, total cholesterol, triglyceride and leptin levels than 3′-SL”.
